pIC50: −log10 of the molar value.
Molecular target: PDE10A (Homo sapiens, UniProt Q9Y233)
Type: biochemical

Sequence of PDE10A (Q9Y233 whole entry): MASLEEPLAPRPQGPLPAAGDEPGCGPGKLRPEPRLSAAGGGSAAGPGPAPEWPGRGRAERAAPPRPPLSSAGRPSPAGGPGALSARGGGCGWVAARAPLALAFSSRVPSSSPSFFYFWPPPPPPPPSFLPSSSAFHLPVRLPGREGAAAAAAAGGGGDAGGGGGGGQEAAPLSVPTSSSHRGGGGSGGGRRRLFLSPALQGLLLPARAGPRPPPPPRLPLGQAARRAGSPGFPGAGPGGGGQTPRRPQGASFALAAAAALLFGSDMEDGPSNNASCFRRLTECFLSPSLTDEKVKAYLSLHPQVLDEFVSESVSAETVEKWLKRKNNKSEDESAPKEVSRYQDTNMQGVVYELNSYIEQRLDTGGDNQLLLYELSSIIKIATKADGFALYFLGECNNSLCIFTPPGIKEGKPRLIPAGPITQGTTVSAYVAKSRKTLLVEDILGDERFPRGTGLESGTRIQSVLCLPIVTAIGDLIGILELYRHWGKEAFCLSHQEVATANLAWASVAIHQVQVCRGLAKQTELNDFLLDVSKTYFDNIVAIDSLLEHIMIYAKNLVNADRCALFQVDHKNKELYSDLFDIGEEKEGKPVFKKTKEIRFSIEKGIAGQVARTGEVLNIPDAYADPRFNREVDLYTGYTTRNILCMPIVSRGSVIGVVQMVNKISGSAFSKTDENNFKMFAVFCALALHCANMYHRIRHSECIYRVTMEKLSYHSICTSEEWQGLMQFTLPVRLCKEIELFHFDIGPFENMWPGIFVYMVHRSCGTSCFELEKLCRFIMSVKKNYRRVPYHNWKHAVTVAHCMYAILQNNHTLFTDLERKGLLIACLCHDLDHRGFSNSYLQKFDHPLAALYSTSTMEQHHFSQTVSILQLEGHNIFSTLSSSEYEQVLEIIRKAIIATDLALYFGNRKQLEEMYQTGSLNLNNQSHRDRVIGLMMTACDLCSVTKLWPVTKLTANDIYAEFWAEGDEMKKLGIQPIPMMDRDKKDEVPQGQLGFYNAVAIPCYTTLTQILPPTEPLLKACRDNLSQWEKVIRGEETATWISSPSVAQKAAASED

pIC50: 5.80
Substance: Zinc42657360

From paper PMC8979230 (RSC Advances, 2022)
